Laboratory results published in patent publication US10918645B2 (LIFEARC, priority 2016, dated 2021).

Key:
[1] = tested on: transgenic Drosophila expressing LRRK2-G2019S in dopamine (DA) neurons; test: Drosophila model survival rate; assay type: in vivo; settings: significance compared to DMSO negative control
Description: (§1) Drosophila model was used to evaluate Examples in vivo. The GAL4/UAS system developed by Andrea Brand and Norbert Perrimon in 1993 [45] was used to generate transgenic Drosophila expressing LRRK2-G2019S in dopamine (DA) neurons. The system has two parts: the GAL4 gene, encoding the yeast transcription activator protein GAL4, and the UAS (Upstream Activation Sequence), an enhancer to which GAL4 specifically binds to activate gene transcription. This system takes advantage of the yeast GAL4 transcription factor, which binds specifically to the UAS.
To express LRRK2-G2019S in DA neurons, the UAS-Wild Type-LRRK2 and UAS-G2019S-LRRK2 transgenes were combined with the dopa decarboxylase (ddc)-GAL4 driver. The 10 μM GW5074 was used for the positive control. […]
Twenty newly enclosed female Drosophila were collected and placed in a food vial. The Drosophila were moved to fresh food vials every other day at which time deaths were scored.
Based on Drosophila′ survival curve, the 50% survival time parameter indicates the time at which half of the Drosophila remained alive and was used to compare the survival ratio between the different groups. The mean 50% survival times and the standard errors were calculated based on 4 separate experiments for each group. The data were analysed by GraphPad PRISM® 6.0 software.

[2] = biological target: LRRK2 (phospho S935) in Drosophila brain lysates (Homo sapiens (Human), UniProt Q5S007, G2019S); test: Drosophila model kinase assays at week 6; assay type: in vivo; settings: ratio of phosphate LRRK2 protein to Flag protein, significance compared to DMSO negative control
Chain of LRRK2 (phospho S935) in Drosophila brain lysates (Q5S007 whole entry G2019S): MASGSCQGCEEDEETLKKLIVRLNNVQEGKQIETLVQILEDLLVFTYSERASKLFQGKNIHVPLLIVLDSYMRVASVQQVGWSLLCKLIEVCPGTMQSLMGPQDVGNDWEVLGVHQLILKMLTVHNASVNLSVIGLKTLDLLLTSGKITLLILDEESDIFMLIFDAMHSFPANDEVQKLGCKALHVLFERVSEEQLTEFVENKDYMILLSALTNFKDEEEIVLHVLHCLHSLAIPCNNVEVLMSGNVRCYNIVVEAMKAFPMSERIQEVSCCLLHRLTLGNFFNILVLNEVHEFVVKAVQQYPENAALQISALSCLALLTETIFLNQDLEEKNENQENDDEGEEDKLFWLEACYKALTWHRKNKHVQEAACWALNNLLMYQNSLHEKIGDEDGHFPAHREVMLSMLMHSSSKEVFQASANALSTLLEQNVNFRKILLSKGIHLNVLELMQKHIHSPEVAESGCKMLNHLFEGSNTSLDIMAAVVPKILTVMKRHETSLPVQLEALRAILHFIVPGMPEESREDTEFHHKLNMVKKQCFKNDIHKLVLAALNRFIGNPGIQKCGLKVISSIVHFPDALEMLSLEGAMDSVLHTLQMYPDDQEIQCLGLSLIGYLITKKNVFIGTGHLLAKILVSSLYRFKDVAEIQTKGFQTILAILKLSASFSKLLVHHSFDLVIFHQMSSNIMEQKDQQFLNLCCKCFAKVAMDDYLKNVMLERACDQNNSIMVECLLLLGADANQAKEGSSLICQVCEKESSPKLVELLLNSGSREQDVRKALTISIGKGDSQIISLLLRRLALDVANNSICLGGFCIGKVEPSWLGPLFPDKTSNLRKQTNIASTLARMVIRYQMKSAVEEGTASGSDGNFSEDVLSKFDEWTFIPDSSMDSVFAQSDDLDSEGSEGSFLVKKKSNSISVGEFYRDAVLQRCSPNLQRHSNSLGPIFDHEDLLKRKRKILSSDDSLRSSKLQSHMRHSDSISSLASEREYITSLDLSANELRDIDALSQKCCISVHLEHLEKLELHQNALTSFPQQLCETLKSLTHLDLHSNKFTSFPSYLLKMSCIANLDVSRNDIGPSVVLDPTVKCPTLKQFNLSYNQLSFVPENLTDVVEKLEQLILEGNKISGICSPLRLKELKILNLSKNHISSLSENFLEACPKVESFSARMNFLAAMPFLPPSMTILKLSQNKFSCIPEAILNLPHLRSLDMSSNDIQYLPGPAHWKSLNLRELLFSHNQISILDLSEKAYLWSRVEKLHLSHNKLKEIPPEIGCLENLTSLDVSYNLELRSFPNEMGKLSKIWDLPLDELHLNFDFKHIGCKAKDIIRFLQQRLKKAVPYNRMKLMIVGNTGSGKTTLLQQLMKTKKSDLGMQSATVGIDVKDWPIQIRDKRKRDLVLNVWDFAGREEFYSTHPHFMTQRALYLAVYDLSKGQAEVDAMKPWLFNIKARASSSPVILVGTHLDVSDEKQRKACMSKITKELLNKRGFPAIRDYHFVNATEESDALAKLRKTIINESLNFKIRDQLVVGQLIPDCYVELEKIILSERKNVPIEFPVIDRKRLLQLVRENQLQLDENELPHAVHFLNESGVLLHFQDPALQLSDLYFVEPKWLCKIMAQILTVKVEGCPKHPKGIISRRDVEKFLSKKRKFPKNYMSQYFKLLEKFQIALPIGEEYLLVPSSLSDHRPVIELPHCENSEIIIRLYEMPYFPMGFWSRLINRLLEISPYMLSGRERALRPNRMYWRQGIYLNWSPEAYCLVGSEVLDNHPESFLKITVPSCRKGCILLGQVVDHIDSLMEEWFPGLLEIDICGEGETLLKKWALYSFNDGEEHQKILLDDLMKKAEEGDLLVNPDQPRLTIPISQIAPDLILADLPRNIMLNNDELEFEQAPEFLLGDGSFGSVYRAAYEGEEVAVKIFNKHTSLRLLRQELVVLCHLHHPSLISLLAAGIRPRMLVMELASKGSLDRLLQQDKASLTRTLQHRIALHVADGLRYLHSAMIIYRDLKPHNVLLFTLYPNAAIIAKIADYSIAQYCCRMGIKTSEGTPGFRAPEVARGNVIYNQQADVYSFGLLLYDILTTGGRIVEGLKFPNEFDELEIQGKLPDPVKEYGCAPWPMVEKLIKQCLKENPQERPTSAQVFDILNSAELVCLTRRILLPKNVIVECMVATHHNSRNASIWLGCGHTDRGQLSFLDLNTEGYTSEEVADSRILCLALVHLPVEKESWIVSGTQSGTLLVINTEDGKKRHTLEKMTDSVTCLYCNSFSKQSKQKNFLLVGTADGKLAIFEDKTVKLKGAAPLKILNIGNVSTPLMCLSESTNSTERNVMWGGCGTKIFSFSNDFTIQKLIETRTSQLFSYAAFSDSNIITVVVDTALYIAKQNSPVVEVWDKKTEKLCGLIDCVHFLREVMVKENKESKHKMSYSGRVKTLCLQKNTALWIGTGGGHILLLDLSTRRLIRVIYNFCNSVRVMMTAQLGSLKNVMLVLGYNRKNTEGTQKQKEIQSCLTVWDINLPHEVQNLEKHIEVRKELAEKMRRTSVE
Experimental: The 10 μM GW5074 was used for the positive control. The negative control group was DMSO control (all compounds were dissolved in DMSO with 1:1000 dillution). The Drosophila were maintained at 25° C. on a 12 hour light-12 hour dark cycle. GW5074 was used as positive control [47].
The adult Drosophila heads were homogenized on ice, and the brain lysates were performed kinase reaction in kinase reaction buffer with ATP and DTT.
Then the lysates were electrophoresed through 12% SDS-PAGE gels and transferred to PVDF membranes (Millipore). The membranes were blocked in TBST with 5% skimmed milk for 1 hour at room temperature and then incubated in anti-LRRK2 pSer935 antibody (Abcam, ab133450) and anti-Flag antibody overnight at 4° C.
The proteins were detected with HRP-conjugated secondary antibodies and ECL detection reagents. The optical density of immunoblotting was analysed by Image J software and the ratio of phosphate LRRK2 protein compare to Flag protein were calculated and the data were analysed by GraphPad PRISM® 6.0 software.

[3] = tested on: transgenic Drosophila expressing LRRK2-G2019S in dopamine (DA) neurons; test: Drosophila model climbing assay (negative geotaxis); assay type: in vivo; settings: significance compared to DMSO negative control
Description: as §1
To express LRRK2-G2019S in DA neurons, the UAS-Wild Type-LRRK2 and UAS-G2019S-LRRK2 transgenes were combined with the dopa decarboxylase (ddc)-GAL4 driver. The 10 μM GW5074 was used for the positive control. The negative control group was DMSO control (all compounds were dissolved in DMSO with 1:1000 dillution). The Drosophila were maintained at 25° C. on a 12 hour light-12 hour dark cycle. GW5074 was used as positive control.
The negative geotaxis assay was used to analyse the locomotors ability of the Drosophila. Twenty Drosophila from each vial and 4 vials for each group were performed the climbing assay weekly.
The tested Drosophila were transferred into a vertical plastic tube (15 cm tall, 1.5 cm in diameter). After 30 min of rest at room temperature, the Drosophila were gently tapped to the bottom of the tube, the numbers of Drosophila that could climb to or above the test line within 10 seconds were counted and the percent were calculated.
The climbing abilities were analysed based on three separate experiments for each vial and the data were analysed by GraphPad PRISM® 6.0 software.

[4] = biological target: JAK2 (Homo sapiens (Human), UniProt O60674); test: LANCE Kinase Assay (JAK2_IC50 selectivity assay); assay type: biochemical
Description: In LANCE® Kinase Assay (JAK2_IC50 selectivity assay): JAK2 (Invitrogen, Cat. No PV4288), ATP (Sigma, Cat. No. A7699-1G), DMSO (Sigma, Cat. No. D2650), DTT (Sigma, Cat. No. 43815), LANCE Ultra ULight™-JAK-1 peptide (Perkin Elmer, Cat. No. TRF0121), LANCE Eu-W1024 Anti-phosphotyrosine (PT66) (Perkin Elmer, Cat. No. AD0069), LANCE™ Detection Buffer (Perkin Elmer, Cat. No. CR97-100), Tofacitinib (PharmaBlock Sciences(Nanjing), Inc, Cat. No. PBN2011586-01); Equipments: Envision (Perkin Elmer), Bravo (Agilent); Consumables: 384 well Intermediate plate (Greiner, Cat. No. 781280), 384 well assay plate (Perkin Elmer, Cat. No. 6007299),
The assay involves two steps, the enzymatic step and the detection step with HTRF reagents. Step 1: During the enzymatic step the substrate-biotin is incubated with the kinase of interest. ATP is added to start the reaction. Step 2: The detection reagent catches the phosphorylated substrate and the resulting TR-FRET is proportional to the phosphorylation level.
Compound Preparation: Dissolve the test compounds into 30 mM DMSO solution and put them in nitrogen hood at room temperature for long term storage; Dilute the 30 mM compound in DMSO with 3-fold factor, total 11 concentrations; Aspirate 1 μl compound and then dilute them in 25 folds with kinase buffer. Mix well and balance 30 minutes at room temperature.
Kinase Reaction: Transfer 2.5 μl compounds in kinase buffer (4×) into assay plate by Agilent Bravo. Spin the plate; Transfer 5 μl enzyme mixture into the assay plate by using Eppendorf electronic multi-channel pipette. Spin the plate; Incubate the assay plate for 20 minutes at room temperature (23° C.); Add 2.5 μl kinase buffer with ATP into the assay plate by using Multidrop. Spin and seal the plate; Incubate the assay plate for 90 minutes at room temperature (23° C.).
Stop Reaction: Transfer 10 μl detection reagent (2 nM LANCE Eu-W1024 Anti-phosphotyrosine) into the assay plate by using Eppendorf electronic multi-channel pipette. Spin and seal the plate; Incubate the assay plate at room temperature (23° C.) for 60 minutes.
Detection and Read: The excitation wavelength is 340 nm, the primary emission wavelength is 615 nm and the secondary emission wavelength is 665 nm (for Cryptate and Ulight, respectively). Read the plate with EnVision to get the readout of both wavelengths; Calculate the ratio of 665 nm/615 nm.
(§2) IC50 estimates were obtained using the software XLfit (IDBS Inc.).

[5] = biological target: LRRK2 G2019S (Homo sapiens (Human), UniProt Q5S007, G2019S); test: Adapta Kinase Assay (LRRK2_IC50 assay); assay type: biochemical; settings: inhibition of LRRK2 G2019S
Chain of LRRK2 G2019S (Q5S007 970-2527 G2019S): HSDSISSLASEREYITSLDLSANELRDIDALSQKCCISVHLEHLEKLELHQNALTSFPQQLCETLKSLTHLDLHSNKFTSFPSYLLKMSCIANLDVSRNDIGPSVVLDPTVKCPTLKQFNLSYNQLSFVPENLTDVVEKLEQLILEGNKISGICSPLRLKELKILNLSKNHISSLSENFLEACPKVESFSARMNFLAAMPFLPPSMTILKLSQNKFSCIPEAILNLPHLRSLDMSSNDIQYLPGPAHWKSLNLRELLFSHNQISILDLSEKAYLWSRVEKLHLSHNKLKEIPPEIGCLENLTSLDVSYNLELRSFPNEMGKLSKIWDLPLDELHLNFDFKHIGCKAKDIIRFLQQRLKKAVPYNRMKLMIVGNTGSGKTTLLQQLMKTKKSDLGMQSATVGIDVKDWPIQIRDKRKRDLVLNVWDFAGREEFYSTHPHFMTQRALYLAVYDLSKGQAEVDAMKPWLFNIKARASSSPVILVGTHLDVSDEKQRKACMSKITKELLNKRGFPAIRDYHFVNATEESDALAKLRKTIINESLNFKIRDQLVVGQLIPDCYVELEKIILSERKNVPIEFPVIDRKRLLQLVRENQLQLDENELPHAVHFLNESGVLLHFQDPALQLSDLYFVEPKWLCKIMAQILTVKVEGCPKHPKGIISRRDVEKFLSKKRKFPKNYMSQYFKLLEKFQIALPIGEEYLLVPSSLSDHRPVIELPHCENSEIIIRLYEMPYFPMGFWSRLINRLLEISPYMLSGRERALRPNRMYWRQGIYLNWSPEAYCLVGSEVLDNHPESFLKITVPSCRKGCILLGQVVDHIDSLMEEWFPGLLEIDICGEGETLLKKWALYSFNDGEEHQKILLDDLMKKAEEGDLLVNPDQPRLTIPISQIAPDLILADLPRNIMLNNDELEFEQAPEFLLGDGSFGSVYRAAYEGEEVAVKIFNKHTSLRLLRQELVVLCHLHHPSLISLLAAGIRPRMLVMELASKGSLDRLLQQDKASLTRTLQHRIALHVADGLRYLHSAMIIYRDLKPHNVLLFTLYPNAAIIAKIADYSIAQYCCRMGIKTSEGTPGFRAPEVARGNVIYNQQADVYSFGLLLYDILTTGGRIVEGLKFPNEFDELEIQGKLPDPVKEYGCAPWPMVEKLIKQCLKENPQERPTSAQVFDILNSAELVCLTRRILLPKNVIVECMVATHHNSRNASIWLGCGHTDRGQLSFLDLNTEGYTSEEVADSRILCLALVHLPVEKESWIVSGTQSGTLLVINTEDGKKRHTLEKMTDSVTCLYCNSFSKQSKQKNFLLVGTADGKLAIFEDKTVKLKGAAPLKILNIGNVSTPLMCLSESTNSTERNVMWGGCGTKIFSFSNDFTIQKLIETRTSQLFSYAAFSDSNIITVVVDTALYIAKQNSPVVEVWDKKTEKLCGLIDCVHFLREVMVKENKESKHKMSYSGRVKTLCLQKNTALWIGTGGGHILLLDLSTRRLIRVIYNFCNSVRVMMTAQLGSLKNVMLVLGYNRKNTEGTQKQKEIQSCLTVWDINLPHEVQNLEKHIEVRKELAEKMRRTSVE
Experimental: In Adapta™ Kinase Assay (LRRK2_IC50 assay): the Kinase Reaction Buffer contained 5× Kinase Buffer S (Life Technologies, PV5213) and 2 mM DTT (Life Technologies, P2325).
The Adapta® universal kinase assay is a homogenous, fluorescent based immunoassay for the detection of ADP. In contrast to ATP depletion assays, the Adapta® assay is extremely sensitive to ADP formation such that a majority of the signal change occurs in the first 10-20% conversion of ATP to ADP. This makes the Adapta® universal kinase assay ideally suited for use with low activity kinases.
Prepare a 1× solution of kinase reaction buffer from the 5× Kinase Buffer S stock (listed above) by adding 2 ml of 5× stock to 8 ml of H2O to make 10 ml of 1× kinase reaction buffer. To this, add 20 μl of 1 M DTT.
Kinase reactions are performed in a 10 μl volume in low-volume 384-well plates. […] Other non—treated assay plates, while not tested, may also be suitable. The concentration of substrate in the assay is 100 μM, and the 1× kinase reaction buffer consists of 50 mM Tris-HCl pH8.5, 10 mM MgCl2, 1 mM EGTA, 0.01% Brij-35, and 2 mM DTT, plus any additional additives that may be required for a specific kinase. […] The plate is allowed to equilibrate at room temperature for at least 30 minutes before being read on a plate reader configured for Adapta™ TR-FRET.
The data presented in this document were generated using a BMG LABTECH PHERAstar plate reader using the appropriate filters and instrument settings for Adapta™. The Test Compounds are screened in 1% DMSO (final) in the well. For 8 point titrations, 5-fold serial dilutions are conducted from the starting concentration.
as §2

Row | Structure (SMILES) | Survival Rate [1] | Kinase Assays [2] | Climbing Assay 3 weeks ([3]; 3 weeks) | Climbing Assay 4 weeks ([3]; 4 weeks) | Climbing Assay 5 weeks ([3]; 5 weeks) | Climbing Assay 6 weeks ([3]; 6 weeks) | IC50 [4] [µM] | IC50 [5] [nM]
1 | c1ccc2c(c1)CN(C1CCOCC1)c1nccc3[nH]nc-2c13 [Example 58] | ** (P < 0.01, compared to DMSO negative control) | * (P < 0.05, compared to DMSO negative control) | * (P < 0.05, compared to DMSO negative control) | * (P < 0.05, compared to DMSO negative control) | ** (P < 0.01, compared to DMSO negative control) | ** (P < 0.01, compared to DMSO negative control) |  | 
2 | CN1CCN(C2CCOCC2)c2nccc3[nH]nc1c23 [Example 93, 9-methyl-6-(tetrahydro-2H-pyran-4-yl)-6,7,8,9-tetrahydro-2H-1,2,5,6,9-pentaazabenzo[cd]azulene] |  |  |  |  |  |  | > 30 | 170
